{"source": "patent US10369153B2", "about": "“Pyrrolopyrimidine compounds and uses thereof” (HUTCHISON MEDIPHARMA LIMITED, priority 2010, dated 2019)", "key": {"[1]": {"biological_target": "Recombinant human JAK1 catalytic domain (Homo sapiens (Human), UniProt P23458)", "sequence (P23458 875-1153)": "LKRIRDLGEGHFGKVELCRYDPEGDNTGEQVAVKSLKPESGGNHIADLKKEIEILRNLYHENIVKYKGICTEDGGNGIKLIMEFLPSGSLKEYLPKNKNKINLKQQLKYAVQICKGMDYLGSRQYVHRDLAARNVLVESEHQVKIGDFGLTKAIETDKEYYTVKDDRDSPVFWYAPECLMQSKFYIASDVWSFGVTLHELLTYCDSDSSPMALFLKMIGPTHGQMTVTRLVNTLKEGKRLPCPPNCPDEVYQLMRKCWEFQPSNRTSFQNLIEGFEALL", "assay": "JAK1 kinase assay (Z'-LYTE, Tyr 6 Peptide)", "assay_type": "biochemical", "conditions": "0.3 uM concentration, read-out: inhibition percentage (IR %)", "protocol": "JAK1/2/3 kinase assay are performed in vitro using Kit-Tyr 6 Peptide (Invitrogen, Cat. No. PV4122). TYK2 kinase assay are performed in vitro using Z′-LYTE™ Kinase Assay Kit-Tyr 3 Peptide (Invitrogen, Cat. No. PV3192). […] All compounds are initially tested at 8 different concentrations (1 μM down to 0.0003 μM) using a 1:3 serial dilution scheme."}, "[2]": {"tested_on": "IL-3-induced STAT5 phosphorylation", "assay": "IL-3-induced STAT5 phosphorylation in TF-1 cells", "assay_type": "cell-based", "conditions": "Homo sapiens, IL-3 stimulation, read-out: pSTAT5 IC50", "protocol": "For the determination of IL-3-induced STAT5 phosphorylation, TF-1 cells (ATCC) are plated in 96 well plates at 1×10^4 cells per well in 10% FBS RPMI-1640 media at 37° C., 5% CO2 for 3 hours. Cells were incubated in the presence or absence of various concentrations of diluted compound for 30 min at 37° C., 5% CO2. Cells were stimulated by adding 10 ng/ml human recombinant IL-3 to each well for 30 minutes at 37° C., 5% CO2. Cells are then fixed in 2% paraformaldehyde for 45 minutes at room temperature and incubated in ice-cold methanol for 30 minutes. After washing in PBS, cells are incubated with rabbit anti-phospho-STAT5 (Y694) (Cell Signaling Technologies, 1:1000 in antibody dilution solution) primary antibody overnight at 4° C. Goat anti-rabbit IgG Alexa 488 (Invitrogen, 1:1,000 dilution in PBS) secondary antibody is added for 90 minutes prior to PBS washes. Cells are counted following incubation in a 7.5 uM propidium iodide, 100 μg/ml RNaseA, PBS solution for 60 minutes in the dark. Plates are read on an Acumen X3 instrument (TPP Labtech).\n(§1) Percent inhibition is calculated using the following formula: Inhibition (%)=100−((inhibitor treatment−cell)/(stimulator−cell))×100 […]"}, "[3]": {"tested_on": "IL-6-induced STAT3 phosphorylation", "assay": "IL-6-induced STAT3 phosphorylation in HepG2 cells", "assay_type": "cell-based", "conditions": "Homo sapiens, IL-6 stimulation, read-out: pSTAT3 IC50", "protocol": "For the determination of IL-6-induced STAT3 phosphorylation, HepG2 cells (SIBS) are seeded in 96 well plates at 5.4×10^3 cells per well in Serum Free DMEM media overnight and incubated in the presence or absence of various concentrations of diluted compound for 30 min at 37° C., 5% CO2. Cells were stimulated by adding 10 ng/ml human recombinant IL-6 to each well for 15 minutes at 37° C., 5% CO2. Cells are then fixed in 2% paraformaldehyde for 45 minutes at room temperature and incubated in ice-cold methanol for 30 minutes. After washing in PBS, cells are incubated with rabbit anti-phospho-STAT3 (Y705) (Cell Signaling Technologies, 1:1000 in antibody dilution solution) primary antibody overnight at 4° C. Goat anti-rabbit IgG Alexa 488 (Invitrogen, 1:1,000 dilution in PBS) secondary antibody is added for 90 minutes prior to PBS washes. Cells are counted following incubation in a 7.5 uM propidium iodide, 100 μg/ml RNaseA, PBS solution for 60 minutes in the dark. Plates are read on an Acumen X3 instrument (TPP Labtech).\nas §1"}}, "note": "pIC50: −log10 of the molar value."}
{"smiles": "CN(c1ccc(C(=O)N[C@@H](CO)c2ccccc2)cn1)[C@@H]1CCN(c2ncnc3[nH]ccc23)C1", "note": "[Compound 176]", "values": [{"measurement": "inhibition at 0.3 µM", "setting": "[1]", "value": "50 to 100", "unit": "%"}]}
{"smiles": "CN(c1ccc(C(=O)Nc2nccs2)cn1)[C@@H]1CCN(c2ncnc3[nH]ccc23)C1", "note": "[Compound 199]", "values": [{"measurement": "inhibition at 0.3 µM", "setting": "[1]", "value": "50 to 100", "unit": "%"}, {"measurement": "pIC50", "setting": "[2]", "value": 5.12}, {"measurement": "pIC50", "setting": "[3]", "value": 7.30}]}
{"smiles": "CN(C(=O)c1ccc(N(C)[C@@H]2CCN(c3ncnc4[nH]ccc34)C2)nc1)[C@@H](CO)c1ccccc1", "note": "[Compound 200]", "values": [{"measurement": "inhibition at 0.3 µM", "setting": "[1]", "value": "20 to 50", "unit": "%"}]}
